This passage reports IC50 results from US9902739B2, “Small molecule inhibitors of G protein coupled receptor 6 kinases polypeptides” (Mayo Foundation for Medical Education and Research, priority 2014, dated 2018).

For this test, the target named is T1, GRK6, recombinant full-length GST-tagged human protein (Homo sapiens, UniProt P43250).
T1 construct: Enzyme: 20 nM GRK6, recombinant full-length GST-tagged human protein; GST
The test is described as follows: GRK6 assay, IC50 determination (8-point concentration-response). The format is biochemical. How it is done:
The following assay conditions were used.
Buffer: 50 mM TRIS-HCl, pH 7.5, 5 mM MgCl2, 2 mM DTT, 0.01% Triton X-100, 10 μM Na3VO4, 10 μM b-GP, 1% DMSO
Enzyme: 20 nM GRK6, recombinant full-length GST-tagged human protein
Peptide substrate (Peptide 216): 1 μM
One hundred two compounds (1-1-1-102) were further characterized by determining IC50 values in a GRK6 assay. This screen has been previously described in WO 2013/063458, which is incorporated by reference in its entirety herein. Briefly, the following activities were performed: 8-point concentration-response determinations in singlicate wells (top concentration=60 μM, 3-fold dilution steps); Repeat tests for QC failed or inconclusive compounds; and Repeat tests (titrate down) for compounds with >50% inhibition at all tested concentrations.
Twelve compounds (2-1-2-12) were further characterized by determining the IC50 values in a GRK6 assay. This screen has been previously described in WO 2013/063458, which is incorporated by reference in its entirety herein. Specific activities were performed as described above (Example 18).
Thirty-six compounds (3-1-3-36) were further characterized by determining the IC50 values in a GRK6 assay. This screen has been previously described in WO 2013/063458, which is incorporated by reference in its entirety herein. Specific activities were performed as described above (Example 18).
Fifty-four compounds (4-1-4-54) were further characterized by determining the IC50 values in a GRK6 assay. This screen has been previously described in WO 2013/063458, which is incorporated by reference in its entirety herein. Specific activities were performed as described above (Example 18).

Where [1] appears, read: Series 3 (Table 13), conditions as Example 18.
Setting [2] is: Series 4 (Table 14), conditions as Example 18.
Setting [3] is: Series 1 (Table 11), 20 nM GRK6, ATP 12 μM (Km), Peptide 216 1 μM, incubation 7 h.

A value given as a limit tells only on which side of the number the result lay.

T1 sequence (P43250 whole entry): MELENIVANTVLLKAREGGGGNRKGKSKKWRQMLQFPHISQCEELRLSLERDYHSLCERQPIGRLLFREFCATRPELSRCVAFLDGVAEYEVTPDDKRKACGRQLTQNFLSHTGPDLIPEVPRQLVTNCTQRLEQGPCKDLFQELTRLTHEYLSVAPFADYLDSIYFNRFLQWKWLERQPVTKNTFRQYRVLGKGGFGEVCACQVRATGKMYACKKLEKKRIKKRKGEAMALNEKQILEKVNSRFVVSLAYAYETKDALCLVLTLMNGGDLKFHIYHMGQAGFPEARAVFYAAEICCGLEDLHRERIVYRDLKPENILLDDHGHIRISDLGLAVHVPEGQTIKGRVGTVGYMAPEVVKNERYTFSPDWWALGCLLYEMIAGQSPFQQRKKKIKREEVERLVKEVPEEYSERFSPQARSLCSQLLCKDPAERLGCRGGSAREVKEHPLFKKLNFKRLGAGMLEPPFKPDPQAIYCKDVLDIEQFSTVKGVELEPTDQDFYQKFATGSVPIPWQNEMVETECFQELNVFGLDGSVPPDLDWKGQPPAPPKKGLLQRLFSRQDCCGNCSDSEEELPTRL

In the case of `COc1cc(Cl)cc(-c2cc(-c3nnc(SCc4nnn[nH]4)[nH]3)cc([N+](=O)[O-])c2)c1` [Compound 3-7], the IC50 (in general, the midpoint of a concentration-inhibition curve) under setting [1] was found to be 1210 nM.
Same read-out and setting: with `c1cnc2c(-c3ccc(-c4nnc(SCc5nnn[nH]5)[nH]4)o3)cccc2c1` [Compound 3-14] the figure was 2340 nM.
`O=C(O)CSc1nnc(-c2ccc(F)cn2)[nH]1` [Compound 4-35]: under setting [2], the IC50 turned out to be 78700 nM.
The same measure, in the same setting: in the case of `O=C(O)CSc1nnc(-c2ccc(-c3ccccn3)s2)[nH]1` [Compound 4-16] it was 6540 nM.
Consider `O=C(O)CSc1nnc(-c2ccc(-c3ccc4[nH]c5ccccc5c4c3)o2)[nH]1` [Compound 1-3], for which the IC50 under setting [3] worked out at 131 nM.
Regarding `Cn1cc(-c2ccc(-c3nnc(SCC(=O)O)[nH]3)o2)cn1` [Compound 1-98], the 50% inhibitory concentration (IC50) under setting [3] is 3680 nM.
Same read-out and setting: with `O=C(O)CSc1nnc(-c2ccc(-c3ccc(Br)cc3)o2)[nH]1` [Compound 1-68] the figure was 813 nM.
Take `O=C(O)CSc1nnc(-c2ccc(-c3cccc(Cl)c3)o2)[nH]1` [Compound 1-36]: the IC50 under setting [3] came out at 359 nM.
With `Cn1c(-c2nnc(SCC(=O)O)[nH]2)cc2ccccc21` [Compound 4-34], the IC50 under setting [2] was 38800 nM.
The same measure, in the same setting: with `CC(C)(C)C(=O)Nc1ncccc1-c1nnc(SCC(=O)O)[nH]1` [Compound 4-47] the figure was greater than 64000 nM.
`O=C(O)CSc1nnc(-c2ccc(-c3cc(Cl)cc(Cl)c3)o2)[nH]1` [Compound 1-10]: the IC50 under setting [3] was found to be 186 nM.
Still for that read-out and setting: with `O=C(O)CSc1nnc(-c2ccc(-c3cccc4[nH]ccc34)o2)[nH]1` [Compound 1-70] the figure was 860 nM.
Take `Fc1cc(F)cc(-c2ccc(-c3nnc(SCc4nnn[nH]4)[nH]3)o2)c1` [Compound 3-18]: under setting [1], the IC50 came to 3310 nM.
On to `O=C(O)CSc1nnc(-c2ccc(-c3cccc(OCc4ccc(C(F)(F)F)cc4)c3)o2)[nH]1` [Compound 1-60], for which the IC50 under setting [3] is 630 nM.
`O=C(O)CSc1nnc(-c2cccn2S(=O)(=O)c2ccccc2)[nH]1` [Compound 4-44]: the IC50 under setting [2] is greater than 100000 nM.
The same measure, in the same setting: with `O=C(O)CSc1nnc(-c2ccc(-c3cc(Cl)cc(Cl)c3)s2)[nH]1` [Compound 4-1] the figure was 595 nM.
`O=C(O)CSc1nnc(-c2ccc(-c3ccccc3C(F)(F)F)o2)[nH]1` [Compound 1-94]: the IC50 under setting [3] turned out to be 3100 nM.
Same read-out and setting: in the case of `Cn1ncc2ccc(-c3ccc(-c4nnc(SCC(=O)O)[nH]4)o3)cc21` [Compound 1-63, 2-((5-(5-(1-methyl-1H-indazol-6-yl)furan-2-yl)-4H-1,2,4-triazol-3-yl)thio)acetic acid] it was 699 nM; in that of `O=C(O)CSc1nnc(-c2ccc(-c3cccc([N+](=O)[O-])c3)o2)[nH]1` [Compound 1-59], 617 nM.
On the same count and under the same terms, in the case of `O=C(O)CSc1nnc(-c2ccc(-c3cccc(O)c3)o2)[nH]1` [Compound 1-62] it was 636 nM; in that of `COc1ccc2cc(-c3ccc(-c4nnc(SCC(=O)O)[nH]4)o3)ccc2c1` [Compound 1-16], 241 nM.
Regarding `O=C(O)CSc1nnc(-c2ccc(-c3ccc(Cl)nc3)o2)[nH]1` [Compound 1-91], under setting [3], the IC50 was found to be 2090 nM.
The same measure, in the same setting: in the case of `O=C(O)CSc1nnc(-c2ccc(-c3cccc(OCc4cccc(C(F)(F)F)c4)c3)o2)[nH]1` [Compound 1-52] it was 505 nM.
For the compound `c1cncc(-c2ccc(-c3nnc(SCc4nnn[nH]4)[nH]3)o2)c1` [Compound 3-32], under setting [1], the IC50 turned out to be 8630 nM.
As for `O=C(O)CSc1nnc(-c2ccc(-c3ccc(C(F)(F)F)nc3)o2)[nH]1` [Compound 1-90], the IC50 under setting [3] came out at 2040 nM.
Same read-out and setting: in the case of `O=C(O)CSc1nnc(-c2ccc(-c3cccc(OC(F)(F)F)c3)o2)[nH]1` [Compound 1-21] it was 265 nM.
As for `Cn1nc(C(F)(F)F)cc1-c1ccc(-c2nnc(SCC(=O)O)[nH]2)s1` [Compound 4-18], under setting [2], the half-maximal inhibitory concentration (IC50) was found to be 7410 nM.
Consider `CS(=O)(=O)Nc1cccc(-c2ccc(-c3nnc(SCc4nnn[nH]4)[nH]3)o2)c1` [Compound 3-25], for which the half-maximal inhibitory concentration (IC50) under setting [1] is 4660 nM.
As to `O=C(O)CSc1nnc(-c2[nH]ncc2Br)[nH]1` [Compound 4-23], the IC50 under setting [2] stood at 12300 nM.
As to `O=C(O)CSc1nnc(-c2ccc(-c3cccc(OCc4cccc(OC(F)F)c4)c3)o2)[nH]1` [Compound 1-13], the IC50 under setting [3] came to 195 nM.
As to `O=C(O)CSc1nnc(-c2ccc(-c3ccccc3)s2)[nH]1` [Compound 4-5], the IC50 under setting [2] came to 1270 nM.
The same measure, in the same setting: in the case of `COc1ccc(-c2nnc(SCC(=O)O)[nH]2)cn1` [Compound 4-26] it was 13000 nM.
As for `CS(=O)(=O)c1cccc(-c2ccc(-c3nnc(SCc4nnn[nH]4)[nH]3)o2)c1` [Compound 3-31], under setting [1], the IC50 was determined as 7450 nM.
In the case of `O=C(O)CSc1nnc(-c2ccc(-c3ccc(C(=O)NC4CC4)cc3)o2)[nH]1` [Compound 1-75], the IC50 under setting [3] stood at 1050 nM.
For `c1cc2cc(-c3ccc(-c4nnc(SCc5nnn[nH]5)[nH]4)o3)ccc2[nH]1` [Compound 3-8], the IC50 under setting [1] was 1270 nM.
On to `O=C(O)CSc1nnc(-c2cncc(Br)c2)[nH]1` [Compound 4-12], for which the IC50 under setting [2] was 4110 nM.
On the same count and under the same terms, with `O=C(O)CSc1nnc(-c2ccc(Oc3ccccc3)nc2)[nH]1` [Compound 4-20] the figure was 9210 nM; with `O=C(O)CSc1nnc(-c2ccc(C(F)(F)F)nc2)[nH]1` [Compound 4-48], greater than 54000 nM.
On the same count and under the same terms, in the case of `Cc1nc(C)c(-c2nnc(SCC(=O)O)[nH]2)s1` [Compound 4-43] it was greater than 100000 nM.
Consider `O=C(O)CSc1nnc(-c2ccc(-c3ccc4occc4c3)o2)[nH]1` [Compound 1-47], for which the IC50 under setting [3] came to 424 nM.
The same measure, in the same setting: with `O=C(O)CSc1nnc(-c2ccc(-c3cnc4ccccc4c3)o2)[nH]1` [Compound 1-15] the figure was 234 nM.
In the case of `Nc1ncc(-c2nnc(SCC(=O)O)[nH]2)s1` [Compound 4-13], the IC50 under setting [2] was found to be 4640 nM.
As to `COc1cccc(-c2nnc(SCC(=O)O)[nH]2)n1` [Compound 4-32], the IC50 under setting [2] is 32500 nM.
`Cn1ccc2ccc(-c3ccc(-c4nnc(SCC(=O)O)[nH]4)o3)cc21` [Compound 1-14]: the IC50 under setting [3] worked out at 216 nM.
As to `O=C(O)CSc1nnc(-c2ccc(-c3ccc(Cl)c(Cl)c3)o2)[nH]1` [Compound 1-9], the IC50 under setting [3] turned out to be 175 nM.
In the case of `Cn1cc(Cl)c(-c2nnc(SCC(=O)O)[nH]2)n1` [Compound 4-37], the IC50 under setting [2] is 89200 nM.
Consider `O=C(O)CSc1cc(-c2ccccc2)[nH]n1` [Compound 2-12, 2-[(5-phenyl-1H-pyrazol-3-yl)sulfanyl]acetic acid], for which the IC50 (Series 2 (Table 12), conditions as Example 18) was determined as 18300 nM.
In the case of `O=C(O)CSc1nnc(-c2cnc3ccccc3c2)[nH]1` [Compound 4-4], under setting [2], the IC50 was 1120 nM.
For `COc1cc(-c2ccc(-c3nnc(SCC(=O)O)[nH]3)o2)ccc1OCc1ccccc1` [Compound 1-43], the IC50 under setting [3] is 395 nM.
For `CNS(=O)(=O)c1cccc(-c2ccc(-c3nnc(SCc4nnn[nH]4)[nH]3)o2)c1` [Compound 3-30], the half-maximal inhibitory concentration (IC50) under setting [1] is 7160 nM.
With `O=C(O)CSc1nnc(-c2ccc(-c3cnn(CCN4CCOCC4)c3)o2)[nH]1` [Compound 1-100], the 50% inhibitory concentration (IC50) under setting [3] amounted to 6200 nM.
Take `CCc1nc(C)c(-c2nnc(SCC(=O)O)[nH]2)[nH]1` [Compound 4-36]: the IC50 under setting [2] stood at 82700 nM.
Regarding `N#Cc1ccc(COc2cccc(-c3ccc(-c4nnc(SCC(=O)O)[nH]4)o3)c2)cc1` [Compound 1-7], the IC50 under setting [3] came to 167 nM.
On the same count and under the same terms, with `Nc1cccc(-c2ccc(-c3nnc(SCC(=O)O)[nH]3)o2)c1` [Compound 1-83] the figure was 1410 nM.
Take `CC(=O)c1cccc(-c2ccc(-c3nnc(SCc4nnn[nH]4)[nH]3)o2)c1` [Compound 3-15]: the IC50 under setting [1] amounted to 2480 nM.
On to `O=C(O)CSc1nnc(-c2ccc(-c3cc(O)cc(F)c3)o2)[nH]1` [Compound 1-39], for which, under setting [3], the IC50 turned out to be 364 nM.
On the same count and under the same terms, with `O=C(O)CSc1nnc(-c2ccc(-c3cccc(OCc4ccc(Cl)c(C(F)(F)F)c4)c3)o2)[nH]1` [Compound 1-58] the figure was 616 nM; with `O=C(O)CSc1nnc(-c2ccc(-c3cccc(OCc4ccc(OC(F)(F)F)c(Cl)c4)c3)o2)[nH]1` [Compound 1-84], 1440 nM.
Consider `O=C(O)CSc1nnc(-c2ccc(Cl)cn2)[nH]1` [Compound 4-33], for which the IC50 under setting [2] is 35300 nM.
In the case of `COc1cc(F)cc(-c2ccc(-c3nnc(SCc4nnn[nH]4)[nH]3)o2)c1` [Compound 3-17], under setting [1], the IC50 turned out to be 2860 nM.
The same measure, in the same setting: with `Fc1cccc(-c2ccc(-c3nnc(SCc4nnn[nH]4)[nH]3)o2)c1` [Compound 3-27] the figure was 5630 nM.
On to `Cc1ccc(-c2ccc(-c3nnc(SCC(=O)O)[nH]3)o2)cc1Cl` [Compound 1-37], for which, under setting [3], the IC50 was determined as 359 nM.
The same measure, in the same setting: in the case of `CCCOc1cccc(-c2ccc(-c3nnc(SCC(=O)O)[nH]3)o2)c1` [Compound 1-34] it was 341 nM; in that of `O=C(O)CSc1nnc(-c2cc3ccccc3o2)[nH]1` [Compound 1-86], 1570 nM.
On to `O=C(O)CSc1nnc(-c2cnc(-c3ccccc3)s2)[nH]1` [Compound 4-11], for which, under setting [2], the IC50 amounted to 3640 nM.
With `COc1ccc2cc(-c3oc(-c4nnc(SCC(=O)O)[nH]4)cc3-c3ccccc3)ccc2c1` [Compound 1-77], the IC50 under setting [3] amounted to 1150 nM.
